Consider 20 compounds from patent publication EP0297661B1, “[(Bicyclic heterocyclyl)methyl and -hetero] substituted hexahydro-1H-azepines and pyrrolidines” (JANSSEN PHARMACEUTICA N.V., priority 1987, dated 1989).

This experiment concerns compound 48/80-induced lethality. Put plainly: Protection of rats from compound 48/80-induced lethality. Conditions: Rattus norvegicus; male Wistar rats; test compound subcutaneously or orally (route per compound not stated); one hour later compound 48/80 0.5 mg/kg intravenously; dose protecting 50% of animals, survival after 4 hours; read-out: compound 48/80 lethality test in rats-ED₅₀ in mg/kg body weight. The experiment is classed as in vivo. The text has this:
Protection of rats from compound 48/80-induced lethality.
Compound 48/80, a mixture of oligomers obtained by condensation of 4-methoxy-N-methylbenzeneethanamine and formaldehyde has been described as a potent histamine releasing agent (Int. Arch. Allergy, 13, 336 (1958)). The protection from compound 48/80-induced lethal circulatory collapse appears to be simple way of evaluating quantitatively the antihistaminic activity of test compounds. Male rats of an inbred Wistar strain, weighing 240-260 g were used in the experiment. After overnight starvation the rats were transferred to conditioned laboratories (temp. = 21 ± 1°C, relative humidity = 65 ± 5%). The rats were treated subcutaneously or orally with a test compound or with the solvent (NaCl solution, 0.9%). One hour after treatment there was injected intravenously compound 48/80, freshly dissolved in water, at a dose of 0.5 mg/kg (0.2 ml/100 g of body weight). In control experiments, wherein 250 solvent-treated animals were injected with the standard dose of compound 48/80, not more than 2.8% of the animals survived after 4 hours. Survival after 4 hours is therefore considered to be a safe criterion of a protective effect of drug administration. Said ED₅₀-values are the values in mg/kg body weight at which the tested compounds protect 50% of the tested animals against […] lethality.

For `Cc1ccc(Cn2c(NC3CCN(CCc4c(C)nc5ccccn5c4=O)C3)nc3ccccc32)o1` (centres unmarked) [compound 96], the ED50 was 0.04 mg/kg.

Regarding `Fc1ccc(Cn2c(NC3CCN(CCNc4ncccn4)C3)nc3ccccc32)cc1` (centres unmarked) [compound 166, 1-[(4-fluorophenyl)methyl]-N-[1-[-(2-pyrimidinylamino)ethyl]-3-pyrrolidinyl]-1H-benzimidazol-2-amine], the ED50 was 0.08 mg/kg.

For the compound `CN1CCCC(Nc2nc3cccnc3n2Cc2ccco2)CC1` (centres unmarked) [compound 196, 3-(2-furanylmethyl)-N-(hexahydro-1-methyl-1H-azepin-4-yl)-3H-imidazo[4,5-b]-pyridin-2-amine], the ED50 was 0.02 mg/kg. On to `Cc1ccc(Cn2c(NC3CCN(CCNc4nc5cnccc5[nH]4)C3)nc3cccnc32)o1` (centres unmarked) [compound 187, N-[1-[2-[(1H-imidazo[4,5-c]pyridin-2-yl)amino]ethyl]-3-pyrrolidinyl]-3-[(5-methyl-2-furanyl)methyl]-3H-imidazo[4,5-b]pyridin-2-amine], for which the ED50 was 0.04 mg/kg. For the compound `Cc1ccc(Cn2c(NC3CCCN(C)CC3)nc3cccnc32)o1` (centres unmarked) [compound 207, N-(hexahydro-1-methyl-1H-azepin-4-yl)-3-[(5-methyl-2-furanyl)methyl]-3H-imidazo[4,5-b]pyridin-2-amine], the ED50 turned out to be 0.01 mg/kg.

As to `O=c1oc2ccccc2cc1CCN1CCCC(Nc2nc3cccnc3n2Cc2ccco2)CC1` (centres unmarked) [compound 109, 3-[2-[4-[[3-(2-furanylmethyl)-3H-imidazo[4,5-b]pyridin-2-yl]-amino]hexahydro-1H-azepin-1-yl]ethyl]-2H-1-benzopyran-2-one], the ED50 came to 0.04 mg/kg.

Regarding `Cc1nc2ccccn2c(=O)c1CCN1CCC(Nc2nc3cccnc3n2Cc2cscn2)C1` (centres unmarked) [compound 95], the ED50 amounted to 0.04 mg/kg. The figure for `c1csc(Cn2c(NC3CCN(CCNc4nc5cnccc5[nH]4)C3)nc3ccccc32)c1` (centres unmarked) [compound 186] is 0.01 mg/kg.

`Fc1ccc(Cn2c(NC3CCN(CCNc4nccs4)C3)nc3ccccc32)cc1` (centres unmarked) [compound 168, 1-[(4-fluorophenyl)methyl]-N[1-[2-(2-thiazolylamino)ethyl]-3-pyrrolidinyl]-1H-benzimidazol-2-amine]: the ED50 was found to be 0.08 mg/kg. Then `Cc1ccc(Cn2c(NC3CCN(CCc4c(C)nc5n(c4=O)CCCC5)C3)nc3ccccc32)o1` (centres unmarked) [compound 102], with 0.04 mg/kg; and `Cc1ccc(Cn2c(NC3CCN(CCc4c(C)nc5ccccn5c4=O)C3)nc3cccnc32)o1` (centres unmarked) [compound 94], with 0.04 mg/kg; and `Cc1ccc(Cn2c(NC3CCCN(CCO)CC3)nc3ccccc32)o1` (centres unmarked) [compound 211, hexahydro-4-[[1-[(5-methyl-2-furanyl)methyl]-1H-benzimidazol-2-yl]amino]-1H-azepine-1-ethanol], with 0.04 mg/kg. The figure for `Cc1ccc(Cn2c(NC3CCCN(C)CC3)nc3ccccc32)o1` (centres unmarked) [compound 198, N-(hexahydro-1-methyl-1H-azepin-4-yl)-1-[(5-methyl-2-furanyl)methyl]-1H-benzimidazol-2-amine] is 0.04 mg/kg; for `Cc1nc2n(c(=O)c1CCN1CCC(Nc3nc4cccnc4n3Cc3ccccn3)C1)CCCC2` (centres unmarked) [compound 99] it is 0.04 mg/kg; for `CC(C)N1CCC(Nc2nc3ccccc3n2Cc2ccc(F)cc2)C1` (centres unmarked) [compound 204, 1-[(4-fluorophenyl)methyl]-N-[1-(1-methylethyl)-3-pyrrolidinyl]-1H-benzimidazol-2-amine] it is 0.04 mg/kg. Then `COc1ccc(CCN2CCC(Nc3nc4cccnc4n3Cc3ccccn3)C2)cc1` (centres unmarked) [compound 61], with 0.08 mg/kg; and `c1coc(Cn2c(NC3CCCNCC3)nc3cccnc32)c1` (centres unmarked) [compound 49, 3-(2-furanylmethyl)-N-(hexahydro-1H-azepin-4-yl)-3H-imidazo[4,5-b]pyridin2-amine], with 0.04 mg/kg; and `O=c1[nH]c2ccccc2n1CCN1CCC(Nc2nc3ccccc3n2Cc2ccc(F)cc2)C1` (centres unmarked) [compound 125, 1-[2-[3-[[1-[(4-fluorophenyl)methyl]-1H-benzimidazol-2-yl]amino]-1-pyrrolidinyl]ethyl]-1,3-dihydro-2H-benzimidazol-2-one], with 0.08 mg/kg.

With `CNC(=O)NCCN1CCC(Nc2nc3ccccc3n2Cc2ccc(F)cc2)C1` (centres unmarked) [compound 188, N-[2-[3-[[1-[(4-fluorophenyl)methyl]-1H-benzimidazol-2-yl]amino]-1-pyrrolidinyl]ethyl]-N′-methylurea], the ED50 came to 0.01 mg/kg. The figure for `COc1ccc(CCN2CCCC(Nc3nc4cccnc4n3Cc3ccc(C)o3)CC2)cc1` (centres unmarked) [compound 68] is 0.04 mg/kg.
